Measurements: US7776572B2, “Method for reducing loss of enzyme activity during storage” (Corning Incorporated, priority 1996, dated 2010)
Marks after values point to notes of the source that are not given here.

Key:
HRP-Goat A'Mouse IgG = assay: Enzymatic determination of protein binding to coated medium binding polystyrene plate; details: coated medium binding PS; versus uncoated high binding polystyrene plate; absorbance 405 nm
Method: The surfactants were coated onto a medium binding polystyrene plate (Corning Costar No. 2587) as described in Material and Methods. A medium binding polystyrene plate (Corning Costar No. 2587) and a high binding polystyrene plate (Corning Costar No. 2581) were used as controls.
(a) HRP-Goat A'Mouse IgG: Kirkegaard & Perry Laboratories, Inc. Catalog No. 074-1806. Stock solution: 0.5 mg/ml; working concentration: 0.04 μg/ml. The working concentration was obtained by adding 11 μl of the stock solution per 25 mls of PBS pH 7.4 to produce a work stock (WS), and then diluting 1:6 (i.e., 10 mls WS+50 mls PBS pH 7.4).
(1) 100 μl-well of HRP-Goat A'Mouse IgG at a concentration of 0.04 μg/ml were added to the test wells and incubated for 1 hour at room temperature.
(2) The wells were then washed 5 times with the 1M wash solution. Each wash include a 5 minute soak followed by decanting.
(3) 100 μl/well of substrate (30 mls ABTS+30 mls H2O2) were added to the test wells and incubated for 15 minutes at room temperature in the dark.
(4) 100 μl/well of stopping solution (1% SDS) were added to the test wells.
(5) The plates were then shaken and read at 405 nm.
(6) Reduction in binding was determined by comparing the absorbance measured in step (5) with the absorbance measured for a high binding polystyrene plate which had not been treated with a non-ionic surfactant but otherwise subjected to steps (1) to (5).

Horse IgG = assay: Protein binding by colloidal gold staining, coated medium binding polystyrene plates; details: coated medium binding PS; IgG 10 μg/ml, pH 9.4
Method: Except where indicated, the non-ionic surfactants were applied to the hydrophobic surfaces being tested as a 0.1% (weight/volume) solution in isopropanol. A sufficient amount of coating solution was used to cover the surface being testing with a thin layer of the solution (e.g., 25 μl of the solution per well for a standard 24-well plate). In some cases, the solution was applied to surface by spraying; in others, it was poured onto the surface (into the well). Except where indicated, coated samples were either dried at 70° C. for 30 minutes in an air circulated oven or dried at room temperature overnight to evaporate the isopropanol.
Protein binding was determined in some examples using a colloidal gold straining procedure. In accordance with this procedure, colloidal gold becomes electrostatically attached to bound protein and is detected by measuring absorbance at 550 nanometers. Bio-Rad Laboratories' Colloidal Gold Total Protein Stain was used for this purpose, with absorbance being measured with a Cambridge Technologies Plate Reader (No. 7520).
The surfactants were coated onto medium binding polystyrene plates (Corning Costar No. 2587) as described in Material and Methods.
The plates were incubated with IgG as follows: 0.1 ml of Horse IgG (Pierce Labs) at a working concentration of 10 μg/ml in 0.10M NaHCO3 buffer (pH9.4) were added to each well, incubated 30 minutes on a rocker table, and rinsed with dI H2O. The plates were gold stained overnight (0.3 ml/well), rinsed in dI H2O, air dried, and absorbance was measured at 550 nm.

[1] = system: BSA protein (Bovine Serum Albumin, Fraction V); assay: BSA binding to coated polystyrene 24-well plates at different pH, colloidal gold stain; details: for Absorbance (550 nm) pH = 9.2: BSA 10 μg/ml in 0.10 M NaHCO3 buffer; for Absorbance (550 nm) pH = 7.4: BSA 10 μg/ml in 0.10 M PBS; for Absorbance (550 nm) pH = 4.6: BSA 10 μg/ml in 0.10 M acetate buffer
Method: Polystyrene plates having 24 wells (Corning Costar #9447) were coated as described in Materials and Methods.
BSA protein (Bovine Serum Albumin, Fraction V, Sigma) was prepared at 10 μg/ml in 0.10 M acetate buffer (pH=4.6), in 0.10 M PBS (pH=7.4), and in 0.10 M NaHCO3 buffer (pH=9.2). Wells of each coated plate, along with uncoated controls, were aliquoted 0.50 ml each of the protein solutions. The samples were run in triplicate.
The plates were placed on a rocker table for 30 minutes at 23° C. The protein solutions were then emptied from the plates, and the wells were rinsed three times with dl H2O. Thereafter, 1.0 ml of colloidal gold stain was added to each well (see Materials and Methods). The plates were placed on a rocker table overnight, rinsed three times with dI H2O, and air dried. Absorbance at 550 nm was then read using the Cambridge Technologies Plate Reader.

IgG [2] = assay: Coating durability using water washes, IgG binding by colloidal gold; details: for Absorbance (550 nm) Initial: coated polystyrene, no water wash; for Absorbance (550 nm) 1 Time 1 hr 23° C. / Absorbance (550 nm) 1 Time 24 hr 23° C. / Absorbance (550 nm) 1 Time 24 hr 37° C. / Absorbance (550 nm) 1 Time 24 hr 70° C.: dI H2O wash 1 time; for Absorbance (550 nm) 6 Times 30 min each 23° C.: dI H2O wash 6 times
Method: Polystyrene plates having 24 wells (Corning Costar #9447) were coated with these surfactants as described in Materials and Methods. Durability was tested by adding dI H2O to the wells of a test plate (3.0 mls/well), following which the plate was placed on a rocker table. […] The protein solution was incubated with the plate on a rocker table for 30 minutes at 23° C., following which the plate was H2O rinse 3× (3 mls each time). The colloidal gold staining procedure described above was used to reveal bound protein. The staining comprised an overnight incubation on a rocker table at 23° C., a dI H2O rinse, drying at room temperature, and reading at 550 nm.

BSA = assay: Polymer blends molded into petri dishes, BSA binding by colloidal gold
Fetal Bovine Serum (FBS) = assay: Polymer blends molded into petri dishes, FBS protein binding by colloidal gold
IgG [3] = assay: IgG/Au staining of coated polystyrene, type of endgroups
Method: Except where indicated, the non-ionic surfactants were applied to the hydrophobic surfaces being tested as a 0.1% (weight/volume) solution in isopropanol. A sufficient amount of coating solution was used to cover the surface being testing with a thin layer of the solution (e.g., 25 μl of the solution per well for a standard 24-well plate). In some cases, the solution was applied to surface by spraying; in others, it was poured onto the surface (into the well). Except where indicated, coated samples were either dried at 70° C. for 30 minutes in an air circulated oven or dried at room temperature overnight to evaporate the isopropanol. Protein binding was determined in some examples using a colloidal gold straining procedure. In accordance with this procedure, colloidal gold becomes electrostatically attached to bound protein and is detected by measuring absorbance at 550 nanometers. Bio-Rad Laboratories' Colloidal Gold Total Protein Stain was used for this purpose, with absorbance being measured with a Cambridge Technologies Plate Reader (No. 7520). The non-ionic surfactants listed in Table 6 were tested for their ability to produce a low binding surface using the techniques described in Materials and Methods. Polystyrene was used as the hydrophobic test surface and IgG/Au staining was used as the readout.

[4] = system: ^125I-IgG (goat anti-mouse); assay: Radiometric determination of IgG binding to surfactant-coated polystyrene microtiter wells; details: for Total IgG binding, Non-Sterilized: coated polystyrene wells; for Total IgG binding, Non-Sterilized / Tight IgG binding, Non-Sterilized: not sterilized
Method: The hydrophobic surfaces used were flat bottom microtiter plates composed of high binding polystyrene (Corning Costar No. 2581) and medium binding polystyrene (Corning Costar No. 2587). Testing was performed with and without gamma radiation sterilization using cobalt 60 (1.5 Mrad).
The surfactants were applied to the test plates as described in Materials and Methods, followed by sterilization where indicated.
Levels of protein binding were determined using a radiolabeled protein, namely, ^125I-IgG (goat anti-mouse) purchased from DuPont/NEN. Unlabeled IgG in sodium carbonate buffer pH 9.2 was spiked with ^125I-IgG so that the final concentration of labeled IgG and cold IgG in the test solution was 10 μg/mL.
Aliquots of 0.1 milliliters of the protein solution were placed in quadruplicate in the wells of 8-well strips removed from the test microtiter plates. The wells were incubated overnight at 4° C. with shaking. The supernatants were removed from the wells, followed by three washes with 0.2 mL of PBS. The wells were then dried and individually counted to determine “total” IgG binding. After determining “total” binding, the wells were incubated for two hours in 0.2 mL of PBS-Tween (0.05%) at room temperature with shaking. The supernatants were removed from the wells followed by three washes with 0.2 mL of PBS. The wells were dried and individually counted to determine “tight” IgG binding.
Untreated high binding and medium binding plates were used as controls. A comparative experiment was also performed in which a BSA protein coating was used in place of a surfactant coating. The BSA was preabsorbed onto the walls of the wells and then washed to remove excess material. Testing was then performed using the radiolabeled IgG solution as described above.
Radiolabel measurements were performed in a double blind study at BioMolecular Assays (Woburn, Mass.). IgG binding values per microwell were converted to ng/cm^2 values using a surface area of 0.94 cm^2 for a 0.1 mL volume.

bound protein = assay: Colloidal gold staining of bound protein after MDCK culture in media containing 5% FBS, visual; details: colloidal gold after cell culture, visual observation
Method: The procedures used were as follows. Polystyrene 24-well plates were coated with the non-ionic surfactants listed in Table 5 in accordance with the procedures described in Materials and Methods. Uncoated plates were used as a control. For comparison, plates with a covalently attached acrylamide coating (Corning Costar Catalog #2500) and with a stearic acid coating were also tested. The stearic acid coating was applied in the same manner as the non-ionic surfactants again using a 0.1% (w/v) solution.
The plates were gamma sterilized at 1.5 Mrad and then inoculated with 5.6×10^4 MDCK […] per well in 1 ml of complete media containing 5% FBS (Fetal Bovine Serum). Incubation was carried out at 37° C. in a 5% CO2 atmosphere for two days. The plates were fixed and stained, and cell attachment was noted. Following this, the wells were stained using the colloidal gold technique to detect bound protein. Only visual observations were made.

[5] = blended at 5% into polypropylene, silver enhancer
[6] = after two hours in PBS-Tween (0.05%)

SORBITOL MONO-STEARATE
% Reduction in Protein Binding (HRP-Goat A'Mouse IgG): 83.1* % | IgG Protein Binding Absorbance (550 nm) (Horse IgG): 0.00 | Absorbance (550 nm) pH = 9.2 [1]: 0.00 | Absorbance (550 nm) pH = 7.4 [1]: 0.00 | Absorbance (550 nm) pH = 4.6 [1]: 0.00 | Absorbance (550 nm) Initial (IgG [2]): 0.00 | Absorbance (550 nm) 1 Time 1 hr 23° C. (IgG [2]): 0.00 | Absorbance (550 nm) 1 Time 24 hr 23° C. (IgG [2]): 0.00 | Absorbance (550 nm) 1 Time 24 hr 37° C. (IgG [2]): 0.00 | Absorbance (550 nm) 1 Time 24 hr 70° C. (IgG [2]): 0.00 | Absorbance (550 nm) 6 Times 30 min each 23° C. (IgG [2]): 0.00 | Bound Protein Absorbance (550 nm) BSA (BSA; [5]): 0.000 | Bound Protein Absorbance (550 nm) FBS (Fetal Bovine Serum (FBS); [5]): 0.000

PEO(600) DI-STEARATE
Bound Protein Absorbance at 550 nm (IgG [3]): 0.10

PEO(400) DI-OLEATE
Bound Protein Absorbance at 550 nm (IgG [3]): 0.15

PEO(4) SORBITOL MONO-LAURATE
Total IgG binding, Non-Sterilized ([4]; after three PBS washes): 4 ng/cm^2 | Total IgG binding, Sterilized ([4]; gamma sterilized (1.5 Mrad), after three PBS washes): 5 ng/cm^2 | Tight IgG binding, Sterilized ([4]; gamma sterilized (1.5 Mrad), after two hours in PBS-Tween (0.05%)): 3 ng/cm^2 | Tight IgG binding, Non-Sterilized [4, 6]: 2 ng/cm^2 | % Reduction in Protein Binding (HRP-Goat A'Mouse IgG): 99.8% | IgG Protein Binding Absorbance (550 nm) (Horse IgG): 0.00 | Bound Protein Absorbance at 550 nm (IgG [3]): 0.00 | Absorbance (550 nm) Initial (IgG [2]): 0.00 | Absorbance (550 nm) 1 Time 1 hr 23° C. (IgG [2]): 0.09 | Absorbance (550 nm) 1 Time 24 hr 23° C. (IgG [2]): 0.10 | Absorbance (550 nm) 1 Time 24 hr 37° C. (IgG [2]): 0.10 | Absorbance (550 nm) 1 Time 24 hr 70° C. (IgG [2]): 0.10 | Absorbance (550 nm) 6 Times 30 min each 23° C. (IgG [2]): 0.10 | Bound Protein Absorbance (550 nm) BSA (BSA; [5]): 0.060 | Bound Protein Absorbance (550 nm) FBS (Fetal Bovine Serum (FBS); [5]): 0.056

PEO(200) DI-OLEATE
Bound Protein Absorbance at 550 nm (IgG [3]): 0.15

PEO(400) DI-STEARATE
Bound Protein Absorbance at 550 nm (IgG [3]): 0.10

SORBITOL TRI-STEARATE
Bound Protein Absorbance (550 nm) BSA (BSA; blended at 5% into polystyrene): 0.005 | Bound Protein Absorbance (550 nm) FBS (Fetal Bovine Serum (FBS); blended at 5% into polystyrene): 0.008

CCCCCCCC/C=C\CCCCCCCC(=O)OCC(O)CO (stereo not drawn) [GLYCEROL MONO-OLEATE]
% Reduction in Protein Binding (HRP-Goat A'Mouse IgG): 92.4%

CCCCCCCCCCCCCCCCCC(=O)O [STEARIC ACID, reference compound]
Visual Color Upon Protein Staining (bound protein): Very dark

BSA Protein: BSA protein coating preabsorbed onto the wells, used in place of a surfactant coating [reference compound]
Total IgG binding, Non-Sterilized ([4]; after three PBS washes): 594 ng/cm^2 | Tight IgG binding, Non-Sterilized [4, 6]: 173 ng/cm^2

SORBITOL MONO-LAURATE
IgG Protein Binding Absorbance (550 nm) (Horse IgG): 0.00 | Absorbance (550 nm) pH = 9.2 [1]: 0.00 | Absorbance (550 nm) pH = 7.4 [1]: 0.00 | Absorbance (550 nm) pH = 4.6 [1]: 0.00 | Absorbance (550 nm) Initial (IgG [2]): 0.00 | Absorbance (550 nm) 1 Time 1 hr 23° C. (IgG [2]): 0.00 | Absorbance (550 nm) 1 Time 24 hr 23° C. (IgG [2]): 0.00 | Absorbance (550 nm) 1 Time 24 hr 37° C. (IgG [2]): 0.00 | Absorbance (550 nm) 1 Time 24 hr 70° C. (IgG [2]): 0.00-0.02 | Absorbance (550 nm) 6 Times 30 min each 23° C. (IgG [2]): 0.02-0.06
